≈ marks a conversion by molar mass, not a printed value.
Tests used:
Assay type in all cases: cell-based
[1] = system: Candida albicans 90028; experiment: In vitro antifungal assay (Example IX), microdilution broth, MIC; settings: minimum inhibitory concentration (≥50% inhibition), 35° C., 40-48 h, RPMI1640
Outline: (§1)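 Yeast inocula (2.5×10^3 cells/mL, RPMI1640) were exposed to twofold compound series reaching 2-0.0019 μg/mL final, per CLSI yeast methodology. Incubation at 35° C. ran 40-48 h for Candida albicans 90028 and 72 h for Cryptococcus neoformans H99. MIC endpoints were confirmed by absorbance at 600 nm.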

[2] = system: Cryptococcus neoformans H99; experiment: as above; settings: minimum inhibitory concentration (≥50% inhibition), 35° C., 72 h, RPMI1640
Outline: as §1

[3] = system: Rhizomucor pusillus 46342; experiment: In vitro antifungal assay (Example IX), microdilution broth, MEC; settings: minimum effective concentration (shortening of hyphae), 35° C., 40-48 h, RPMI1640
Outline: (§2)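 Read-out is the minimum effective concentration: lowest compound level causing shorter hyphae than in DMSO controls, echinocandin-style. Broth microdilution used conidia or spores harvested from agar plates, cleared of mycelium and clumps, at a final 1-2×10^4 spores/mL in RPMI1640.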

[4] = system: Aspergillus fumigatus MYA3626; experiment: as above; settings: minimum effective concentration (shortening of hyphae), 35° C., 40-48 h, RPMI1640
Outline: as §2

[5] = system: Cryptococcus gattii; experiment: In vitro antifungal assay (Example IX), microdilution broth, MIC; settings: minimum inhibitory concentration (≥50% inhibition), 35° C., 72 h (Cryptococcus), RPMI1640
Outline: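 MIC was determined from OD600 after 72 h at 35 °C for Cryptococcus, in RPMI1640 inoculated at 2.5×10^3 cells/mL. Compounds were tested as a 2-fold series from 2 to 0.0019 μg/mL final, added from DMSO intermediates at a 100-fold dilution.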

Row | SMILES | MIC [1] [µg/mL] | MIC [2] [µg/mL] | MIC [5] [µg/mL] | minimal effective concentration [3] [µg/mL] | minimal effective concentration [4] [µg/mL]
1 | c1ccc(OCc2ccc(Cn3cc(-c4cccnc4)cn3)cc2)nc1 [compound 62, 2-((4-((4-(pyridin-3-yl)-1H-pyrazol-1-yl)methyl)benzyl)oxy)pyridine] | 0.1 to 1 (≈ 0.292 to 2.92 µM) | > 1 | > 1 | > 1 | 0.01 to 0.1
2 | c1ccc(COc2ccc(Cn3cc(-c4cccnc4)cn3)cn2)cc1 [compound 65, 2-(benzyloxy)-5-((4-(pyridin-3-yl)-1H-pyrazol-1-yl)methyl)pyridine] | 0.1 to 1 (≈ 0.292 to 2.92 µM) | 0.1 to 1 (≈ 0.292 to 2.92 µM) | 0.1 to 1 (≈ 0.292 to 2.92 µM) | > 1 | 0.01 to 0.1
3 | Nc1ncccc1-c1cc(Cc2ccc(CNc3ccnc(F)c3)cc2)no1 [compound 70, 3-(3-(4-(((2-fluoropyridin-4-yl)amino)methyl)benzyl)isoxazol-5-yl)pyridin-2-amine] | 0.1 to 1 (≈ 0.266 to 2.66 µM) | 0.1 to 1 (≈ 0.266 to 2.66 µM) | 0.1 to 1 (≈ 0.266 to 2.66 µM) | > 1 | 0.01 to 0.1
4 | Cc1csc(COc2ccc(Cc3cc(-c4cccnc4N)on3)cn2)n1 [compound 82, 3-(3-((6-((4-methylthiazol-2-yl)methoxy)pyridin-3-yl)methyl)isoxazol-5-yl)pyridin-2-amine] | 0.1 to 1 (≈ 0.264 to 2.64 µM) | 0.01 to 0.1 (≈ 0.0264 to 0.264 µM) | 0.01 to 0.1 (≈ 0.0264 to 0.264 µM) | > 1 | 0.01 to 0.1
5 | Nc1ncccc1-c1cc(Cc2ccc(/C=C/C3CCCCC3)cc2)no1 [compound 99, (E)-3-(3-(4-(2-cyclohexylvinyl)benzyl)isoxazol-5-yl)pyridin-2-amine] | > 1 | 0.1 to 1 (≈ 0.278 to 2.78 µM) | 0.1 to 1 (≈ 0.278 to 2.78 µM) | > 1 | 0.1 to 1
6 | Nc1ncccc1-c1cc(Cc2ccc(CCC3CCCCC3)cc2)no1 [compound 100, 3-(3-(4-(2-cyclohexylethyl)benzyl)isoxazol-5-yl)pyridin-2-amine] | 0.1 to 1 (≈ 0.277 to 2.77 µM) | 0.1 to 1 (≈ 0.277 to 2.77 µM) | 0.1 to 1 (≈ 0.277 to 2.77 µM) | > 1 | 0.1 to 1
7 | Nc1ncccc1-c1cnn(Cc2ccc(OCc3ccccc3)nc2)c1 [compound 101, 3-(1-((6-(benzyloxy)pyridin-3-yl)methyl)-1H-pyrazol-4-yl)pyridin-2-amine] | 0.1 to 1 (≈ 0.28 to 2.8 µM) | 0.01 to 0.1 (≈ 0.028 to 0.28 µM) | 0.01 to 0.1 (≈ 0.028 to 0.28 µM) | > 1 | 0.1 to 1
8 | Nc1ncccc1-c1cc(Cc2ccc(CNc3cccc(F)c3F)cc2)no1 [compound 108, 3-(3-(4-(((2,3-difluorophenyl)amino)methyl)benzyl)isoxazol-5-yl)pyridin-2-amine] | 0.01 to 0.1 (≈ 0.0255 to 0.255 µM) | 0.1 to 1 (≈ 0.255 to 2.55 µM) | 0.1 to 1 (≈ 0.255 to 2.55 µM) | 0.1 to 1 | 0.01 to 0.1
9 | Nc1ncccc1-c1cc(Cc2ccc(Oc3ccccn3)cc2)no1 [compound 110, 3-(3-(4-(pyridin-2-yloxy)benzyl)isoxazol-5-yl)pyridin-2-amine] | 0.01 to 0.1 (≈ 0.029 to 0.29 µM) | 0.01 to 0.1 (≈ 0.029 to 0.29 µM) | ≤ 0.01 | 0.1 to 1 | 0.01 to 0.1
10 | Nc1ncccc1-c1cc(Cc2ccc(OCc3nccs3)cc2)no1 [compound 112, 3-(3-(4-(thiazol-2-ylmethoxy)benzyl)isoxazol-5-yl)pyridin-2-amine] | 0.1 to 1 (≈ 0.274 to 2.74 µM) | 0.01 to 0.1 (≈ 0.0274 to 0.274 µM) | 0.01 to 0.1 (≈ 0.0274 to 0.274 µM) | 0.1 to 1 | 0.01 to 0.1
11 | Cc1cncc(COc2ccc(Cc3cc(-c4cccnc4N)on3)cc2)c1 [compound 114, 3-(3-(4-((5-methylpyridin-3-yl)methoxy)benzyl)isoxazol-5-yl)pyridin-2-amine] | 0.1 to 1 (≈ 0.269 to 2.69 µM) | 0.1 to 1 (≈ 0.269 to 2.69 µM) | 0.1 to 1 (≈ 0.269 to 2.69 µM) | > 1 | 0.01 to 0.1

The next lines start with results.

Row | MIC [1] [µg/mL] | MIC [2] [µg/mL] | MIC [5] [µg/mL] | SMILES | minimal effective concentration [3] [µg/mL] | minimal effective concentration [4] [µg/mL]
12 | 0.01 to 0.1 (≈ 0.0277 to 0.277 µM) | 0.01 to 0.1 (≈ 0.0277 to 0.277 µM) | 0.01 to 0.1 (≈ 0.0277 to 0.277 µM) | Nc1ncccc1-c1cc(Cc2ccc(Cc3cccnc3F)cc2)no1 [compound 69, 3-(3-(4-((2-fluoropyridin-3-yl)methyl)benzyl)isoxazol-5-yl)pyridin-2-amine] | 0.1 to 1 | 0.01 to 0.1
13 | 0.01 to 0.1 (≈ 0.0264 to 0.264 µM) | 0.01 to 0.1 (≈ 0.0264 to 0.264 µM) | 0.1 to 1 (≈ 0.264 to 2.64 µM) | Nc1ncccc1-c1cc(Cc2ccc(Nc3cccc(F)c3F)nc2)no1 [compound 72, 5-((5-(2-aminopyridin-3-yl)isoxazol-3-yl)methyl)-N-(2,3-difluorophenyl)pyridin-2-amine] | 0.1 to 1 | 0.1 to 1
14 | 0.01 to 0.1 (≈ 0.0287 to 0.287 µM) | > 1 | > 1 | Nc1ncccc1-c1cc(Cc2ccc(OCc3ccco3)nc2)no1 [compound 73, 3-(3-((6-(furan-2-ylmethoxy)pyridin-3-yl)methyl)isoxazol-5-yl)pyridin-2-amine] | > 1 | 0.1 to 1
15 | 0.01 to 0.1 (≈ 0.0266 to 0.266 µM) | 0.01 to 0.1 (≈ 0.0266 to 0.266 µM) | 0.01 to 0.1 (≈ 0.0266 to 0.266 µM) | Nc1ncccc1-c1cc(Cc2ccc(NCc3ccccc3F)nc2)no1 [compound 74, 5-((5-(2-aminopyridin-3-yl)isoxazol-3-yl)methyl)-N-(2-fluorobenzyl)pyridin-2-amine] | > 1 | 0.1 to 1
16 | 0.01 to 0.1 (≈ 0.0263 to 0.263 µM) | 0.01 to 0.1 (≈ 0.0263 to 0.263 µM) | 0.1 to 1 (≈ 0.263 to 2.63 µM) | Nc1ncccc1-c1cc(Cc2ccc(Oc3ccc(F)cc3F)nc2)no1 [compound 75, 3-(3-((6-(2,4-difluorophenoxy)pyridin-3-yl)methyl)isoxazol-5-yl)pyridin-2-amine] | 0.1 to 1 | 0.01 to 0.1
17 | 0.01 to 0.1 (≈ 0.0256 to 0.256 µM) | 0.01 to 0.1 (≈ 0.0256 to 0.256 µM) | 0.01 to 0.1 (≈ 0.0256 to 0.256 µM) | Nc1ncccc1-c1cc(Cc2ccc(OCCc3ccccc3F)nc2)no1 [compound 77, 3-(3-((6-(2-fluorophenethoxy)pyridin-3-yl)methyl)isoxazol-5-yl)pyridin-2-amine] | 0.1 to 1 | 0.1 to 1
18 | 0.01 to 0.1 (≈ 0.0269 to 0.269 µM) | 0.01 to 0.1 (≈ 0.0269 to 0.269 µM) | 0.01 to 0.1 (≈ 0.0269 to 0.269 µM) | Nc1ncccc1-c1cc(Cc2ccc(OCCc3ccccc3)nc2)no1 [compound 78, 3-(3-((6-phenethoxypyridin-3-yl)methyl)isoxazol-5-yl)pyridin-2-amine] | 0.1 to 1 | 0.1 to 1
19 | 0.01 to 0.1 (≈ 0.0256 to 0.256 µM) | 0.01 to 0.1 (≈ 0.0256 to 0.256 µM) | 0.1 to 1 (≈ 0.256 to 2.56 µM) | Nc1ncccc1-c1cc(Cc2ccc(OCCc3ccc(F)cc3)nc2)no1 [compound 79, 3-(3-((6-(4-fluorophenethoxy)pyridin-3-yl)methyl)isoxazol-5-yl)pyridin-2-amine] | 0.1 to 1 | 0.1 to 1
20 | ≤ 0.01 | 0.01 to 0.1 (≈ 0.0266 to 0.266 µM) | 0.01 to 0.1 (≈ 0.0266 to 0.266 µM) | Nc1ncccc1-c1cc(Cc2ccc(OCc3cccc(F)c3)nc2)no1 [compound 80, 3-(3-((6-((3-fluorobenzyl)oxy)pyridin-3-yl)methyl)isoxazol-5-yl)pyridin-2-amine] | 0.1 to 1 | ≤ 0.01
21 | 0.01 to 0.1 (≈ 0.0263 to 0.263 µM) | ≤ 0.01 | 0.01 to 0.1 (≈ 0.0263 to 0.263 µM) | Nc1ncccc1-c1cc(Cc2ccc(Oc3cc(F)cc(F)c3)nc2)no1 [compound 81, 3-(3-((6-(3,5-difluorophenoxy)pyridin-3-yl)methyl)isoxazol-5-yl)pyridin-2-amine] | 0.1 to 1 | 0.01 to 0.1
22 | 0.01 to 0.1 (≈ 0.0254 to 0.254 µM) | ≤ 0.01 | 0.01 to 0.1 (≈ 0.0254 to 0.254 µM) | Nc1ncccc1-c1cc(Cc2ccc(OCc3ccnc(Cl)c3)nc2)no1 [compound 83, 3-(3-((6-((2-chloropyridin-4-yl)methoxy)pyridin-3-yl)methyl)isoxazol-5-yl)pyridin-2-amine] | > 1 | 0.01 to 0.1
23 | 0.01 to 0.1 (≈ 0.0254 to 0.254 µM) | 0.01 to 0.1 (≈ 0.0254 to 0.254 µM) | 0.1 to 1 (≈ 0.254 to 2.54 µM) | Nc1ncccc1-c1cc(Cc2ccc(OCc3cc(F)cc(F)c3)nc2)no1 [compound 84, 3-(3-((6-((3,5-difluorobenzyl)oxy)pyridin-3-yl)methyl)isoxazol-5-yl)pyridin-2-amine] | 0.1 to 1 | 0.01 to 0.1
24 | 0.01 to 0.1 (≈ 0.0279 to 0.279 µM) | 0.1 to 1 (≈ 0.279 to 2.79 µM) | 0.01 to 0.1 (≈ 0.0279 to 0.279 µM) | Nc1ncccc1-c1cc(Cc2ccc(COc3cccnc3)cc2)no1 [compound 105, 3-(3-(4-((pyridin-3-yloxy)methyl)benzyl)isoxazol-5-yl)pyridin-2-amine] | > 1 | 0.1 to 1
25 | 0.01 to 0.1 (≈ 0.0267 to 0.267 µM) | 0.1 to 1 (≈ 0.267 to 2.67 µM) | 0.01 to 0.1 (≈ 0.0267 to 0.267 µM) | Nc1ncccc1-c1cc(Cc2ccc(CNc3ccccc3F)cc2)no1 [compound 106, 3-(3-(4-(((2-fluorophenyl)amino)methyl)benzyl)isoxazol-5-yl)pyridin-2-amine] | 0.1 to 1 | 0.01 to 0.1
26 | 0.01 to 0.1 (≈ 0.0267 to 0.267 µM) | 0.01 to 0.1 (≈ 0.0267 to 0.267 µM) | 0.01 to 0.1 (≈ 0.0267 to 0.267 µM) | Nc1ncccc1-c1cc(Cc2ccc(CNc3cccc(F)c3)cc2)no1 [compound 107, 3-(3-(4-(((3-fluorophenyl)amino)methyl)benzyl)isoxazol-5-yl)pyridin-2-amine] | 0.01 to 0.1 | 0.01 to 0.1

From patent US11512079B2, “Heterocycle substituted pyridine derivative antifungal agents” (Amplyx Pharmaceuticals, Inc., priority 2017, dated 2022)
